Assay results taken from PubChem BioAssay AID504520 (The Scripps Research Institute Molecular Screening Center, 2011).
Active and inactive are the calls of the source. How the calls were made is not given here.

Tests used:
Assay in all cases: competitive ABPP of LYPLA1 versus anti-target hydrolases – fluorescence, gel-based ABPP, mouse proteome, late-stage follow-up (AID 504520);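 further: soluble proteome from BW5147 murine T cells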
Conditions in all cases: FP-rhodamine fluorescence, stronger effect = higher value
ESD = system: ESD
[1] = target: Platelet-activating factor acetylhydrolase 2, cytoplasmic (Mus musculus) (UniProt Q8VDG7)
Platelet-activating factor acetylhydrolase 2, cytoplasmic (Mus musculus), sequence (Q8VDG7 whole entry, looked up): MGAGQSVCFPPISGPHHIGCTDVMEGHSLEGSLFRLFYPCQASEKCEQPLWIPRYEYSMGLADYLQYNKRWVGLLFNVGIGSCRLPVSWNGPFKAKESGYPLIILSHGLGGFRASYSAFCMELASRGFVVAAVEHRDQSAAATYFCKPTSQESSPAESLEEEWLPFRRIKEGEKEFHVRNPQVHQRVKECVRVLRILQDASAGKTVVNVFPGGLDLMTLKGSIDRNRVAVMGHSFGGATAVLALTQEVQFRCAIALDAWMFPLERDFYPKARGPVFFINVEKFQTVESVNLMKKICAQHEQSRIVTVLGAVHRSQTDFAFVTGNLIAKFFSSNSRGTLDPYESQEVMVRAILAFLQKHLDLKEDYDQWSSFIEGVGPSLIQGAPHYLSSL

LYPLA2 = system: LYPLA2
ABHD11 = system: ABHD11
LYPLA1 = system: LYPLA1

## O=C(N(c1ccccc1)c1cccc(Br)c1)n1ncc(C(O)(c2ccccc2)c2ccccc2)n1
ESD; at 0.75 µM
  inhibition: 0% (inactive)
ESD; inhibition, at 0.03 µM
  inhibition: 0%
ESD; inhibition, at 0.15 µM
  inhibition: 0%
[1]; PAFAH2, at 0.75 µM
  inhibition: 0% (inactive)
[1]; PAFAH2, inhibition, at 0.03 µM
  inhibition: 0%
[1]; PAFAH2, inhibition, at 0.15 µM
  inhibition: 0%
LYPLA2; at 0.75 µM
  inhibition: 0% (inactive)
LYPLA2; inhibition, at 0.03 µM
  inhibition: 0%
LYPLA2; inhibition, at 0.15 µM
  inhibition: 0%
ABHD11; at 0.75 µM
  inhibition: 100%
ABHD11; inhibition, at 0.03 µM
  inhibition: 0%
ABHD11; inhibition, at 0.15 µM
  inhibition: 100%
LYPLA1; at 0.75 µM
  inhibition: 0% (inactive)
LYPLA1; inhibition, at 0.03 µM
  inhibition: 0%
LYPLA1; inhibition, at 0.15 µM
  inhibition: 0%

## COCC1CCCCN1C(=O)n1ncc(C(O)(c2ccccc2)c2ccccc2)n1 (stereo not given)
ESD; at 0.75 µM
  inhibition: 0% (inactive)
ESD; inhibition, at 0.03 µM
  inhibition: 0%
ESD; inhibition, at 0.15 µM
  inhibition: 0%
[1]; PAFAH2, at 0.75 µM
  inhibition: 0% (inactive)
[1]; PAFAH2, inhibition, at 0.03 µM
  inhibition: 0%
[1]; PAFAH2, inhibition, at 0.15 µM
  inhibition: 0%
LYPLA2; at 0.75 µM
  inhibition: 0% (inactive)
LYPLA2; inhibition, at 0.03 µM
  inhibition: 0%
LYPLA2; inhibition, at 0.15 µM
  inhibition: 0%
ABHD11; at 0.75 µM
  inhibition: 100%
ABHD11; inhibition, at 0.03 µM
  inhibition: 100%
ABHD11; inhibition, at 0.15 µM
  inhibition: 100%
LYPLA1; at 0.75 µM
  inhibition: 0% (inactive)
LYPLA1; inhibition, at 0.03 µM
  inhibition: 0%
LYPLA1; inhibition, at 0.15 µM
  inhibition: 0%
